One series can be described thus: Stability of R-. Conditions: for Remained concentration: human plasma with 20 mM glutathione, added concentration 3.585 μg/mL, n=3, Mean±S.D. The series is classed as in vitro ADME, human.
The conditions of series [1]: cited from earlier work.

Take `Cc1cc2c(C(C)C)c(O)c(O)c(C=O)c2c(O)c1-c1c(C)cc2c(C(C)C)c(O)c(O)c(C=O)c2c1O` [R-(-)-gossypol]: the “Stability in mobile phase” value (acetonitrile/water (80:20), 24hr at 4°C) is “good stability”. Further, the “Effect of antioxidants on stability in plasma” value in the series “Stability of R-” (5 μg/mL in plasma with 20 mM reduced glutathione and 1% ascorbic acid, 4°C) was “can improve the stability”. The Remained concentration in “Stability of R-” (-80°C, 1 month) was 111.8±5.6%; in “Stability of R-” (on ice, 4hr) it was 103.8±6.1%; in the series “Stability of R-” (three freeze-thaw cycles), 86.9±1.1%. For the same compound, in “Stability of R-” (plasma, room temperature, over 24hr, compared to freshly prepared samples), the Degraded in plasma entry is “more than 60%”.
As for `Cc1cc2c(C(C)C)c(O)c(O)c(C=O)c2c(O)c1-c1c(C)cc2c(C(C)C)c(O)c(O)c(C=O)c2c1O` [gossypol], the “Stability of quality control plasma samples” value in the series “Stability of R-” (plasma with 20 mM glutathione, -70°C for 1 month) is “stable”; in “Stability of R-” (plasma with 20 mM glutathione, on ice for 4 hr), “stable”. Further, the Freeze-thaw stability result in “Stability of R-” (plasma with 20 mM glutathione, after 3 cycles, lower concentration) was “significant degradation”. In series [1] (acetonitrile), the Stability in acetonitrile result is “stable”. The Stability in methanol result in series [1] (methanol, even at 5°C) is listed as “decompose”. In addition, the Stability in solvents result in series [1] (water, methanol, ethanol and alcoholic solvents) is given as “unstable”.
Turning to R-(-)-gossypol acetic acid, the “Time stock solution was stable” value (1mg/mL in acetonitrile, -70°C) was 3 months.
